Where a name gives a salt, the structure may show the parent alone.
Biological target: T1, VLA-4 integrins on human U937 cells (interaction between VCAM-1 and VLA-4) (Homo sapiens, UniProt P05556+P13612)
T1 construct: the VLA-4 integrins, are offered in their natural form as surface molecules on human U937 cells; host or cells: U937 cells (VLA-4, endogenous); the partner hVCAM-1(1-3)-IgG came from the supernatant of transfected COS cells (ATCC CRL1651)
Assay: U937/VCAM-1 cell adhesion test (adhesion of U937 cells to hVCAM-1(1-3)-IgG)
Format: cell-based
Settings: concentration leading to 50% inhibition of adhesion
Excerpt: As a test method for the activity of the compounds of the formula I on the interaction between VCAM-1 and VLA-4, an assay which is specific for this interaction is used. The cellular binding components, i.e. the VLA-4 integrins, are offered in their natural form as surface molecules on human U937 cells (ATCC CRL 1593) which belong to the group of leucocytes. As specific binding components, recombinant soluble fusion proteins prepared by genetic engineering and consisting of the extracytoplasmic domains of human VCAM-1 and the constant region of a human immunoglobulin of the subclass IgG1 are used.
Assay for the Measurement of the Adhesion of U937 Cells (ATCC CRL 1593) to hVCAM-1 (1-3)-IgG
1. Preparation of Human VCAM-1(1-3)-IgG and Human CD4-IgG
A genetic construct for the expression of the extracellular domains of human VCAM-1 was employed, associated with the genetic sequence of the heavy chain of human immunoglobulin IgG1 (hinge, CH2 and CH3 regions), from Dr. Brian Seed, Massachusetts General Hospital, Boston, USA. The soluble fusion protein hVCAM-1(1-3)-IgG contained the three amino-terminal extracellular immunoglobulin-like domains of human VCAM-1 (Damle and Aruffo, Proc. Natl. Acad. Sci. USA 1991, 88, 6403). CD4-IgG (Zettlmeissl et al, DNA and Cell Biology 1990, 9, 347) served as a fusion protein for negative controls. The recombinant proteins were expressed as soluble proteins after DEAE/dextran-mediated DNA-transfection in COS cells (ATCC CRL1651) according to standard procedures (Ausubel et al., Current protocols in molecular biology, John Wiley & Sons, Inc., 1994).
2. Assay for Measurement of the Adhesion of U937 Cells to hVCAM-1(1-3)-IgG
2.1 96-well microtiter test plates (Nunc Maxisorb) were incubated at room temperature for 1 hour with 100 μl/well of a goat-anti-human IgG antibody solution (10 μg/ml in 50 mM tris, pH 9.5). After removing the antibody solution, washing was carried out once with PBS.
2.2 150 μl/well of a blocking buffer (1% BSA in PBS) were incubated on the plates at room temperature for 0.5 hours. After removing the blocking buffer, washing was carried out once with PBS.
2.3 100 μl per well of a cell culture supernatant of transfected COS cells were incubated on the plates at room temperature for 1.5 hours. The COS cells were transfected with a plasmid which codes for the three N-terminal immunoglobulin-like domains of VCAM-1, coupled to the Fc part of human IgG1 (hVCAM-1(1-3)-IgG). The content of hVCAM-1 (1-3)-IgG was about […]. After removing the culture supernatant, washing was carried out once with PBS.
2.4 The plates were incubated at room temperature for 20 minutes with […] of Fc receptor blocking buffer (1 mg/ml of γ-globulin, 100 mM NaCl, 100 μM MgCl2, 100 μM MnCl2, 100 μM CaCl2, 1 mg/ml BSA in 50 mM HEPES, pH 7.5). After removing the Fc receptor blocking buffer, washing was carried out once with PBS.
2.5 20 μl of binding buffer (100 mM NaCl, 100 μM MgCl2, 100 μM MgCl2, 100 μM CaCl2, 1 mg/ml BSA in 50 mM HEPES, pH 7.5), were initially introduced, the substances to be tested were added in 10 μl of binding buffer and the mixture was incubated for 20 minutes. As controls, antibodies against VCAM-1 (BBT, No. BBA6) and against VLA-4
(Immunotech, No. 0764) were used.
2.6 U937 cells were incubated in Fc receptor blocking buffer for 20 minutes and then pipetted in at a concentration of 1×10^6/ml and in an amount of 100 μl per well ([…]).
2.7 The plates were slowly immersed at an angle of 45° in stop buffer (100 mM NaCl, 100 μM MgCl2, 100 μM MnCl2, 100 μM CaCl2 in 25 mM Tris, pH 7.5) and shaken off. The process was repeated.
2.8 50 μl/well of a dye solution (16.7 μg/ml of Hoechst dye 33258, 4% formaldehyde, 0.5% Triton X-100 in PBS) were then incubated on the plates for 15 minutes.
2.9 The plates were shaken off and slowly immersed at an angle of 45° in stop buffer (100 mM NaCl, 100 μM MgCl2, 100 μM MnCl2, 100 μM CaCl2 in 25 mM Tris, pH 7.5). The process was repeated. […]

T1 sequence (P13612 34-1032): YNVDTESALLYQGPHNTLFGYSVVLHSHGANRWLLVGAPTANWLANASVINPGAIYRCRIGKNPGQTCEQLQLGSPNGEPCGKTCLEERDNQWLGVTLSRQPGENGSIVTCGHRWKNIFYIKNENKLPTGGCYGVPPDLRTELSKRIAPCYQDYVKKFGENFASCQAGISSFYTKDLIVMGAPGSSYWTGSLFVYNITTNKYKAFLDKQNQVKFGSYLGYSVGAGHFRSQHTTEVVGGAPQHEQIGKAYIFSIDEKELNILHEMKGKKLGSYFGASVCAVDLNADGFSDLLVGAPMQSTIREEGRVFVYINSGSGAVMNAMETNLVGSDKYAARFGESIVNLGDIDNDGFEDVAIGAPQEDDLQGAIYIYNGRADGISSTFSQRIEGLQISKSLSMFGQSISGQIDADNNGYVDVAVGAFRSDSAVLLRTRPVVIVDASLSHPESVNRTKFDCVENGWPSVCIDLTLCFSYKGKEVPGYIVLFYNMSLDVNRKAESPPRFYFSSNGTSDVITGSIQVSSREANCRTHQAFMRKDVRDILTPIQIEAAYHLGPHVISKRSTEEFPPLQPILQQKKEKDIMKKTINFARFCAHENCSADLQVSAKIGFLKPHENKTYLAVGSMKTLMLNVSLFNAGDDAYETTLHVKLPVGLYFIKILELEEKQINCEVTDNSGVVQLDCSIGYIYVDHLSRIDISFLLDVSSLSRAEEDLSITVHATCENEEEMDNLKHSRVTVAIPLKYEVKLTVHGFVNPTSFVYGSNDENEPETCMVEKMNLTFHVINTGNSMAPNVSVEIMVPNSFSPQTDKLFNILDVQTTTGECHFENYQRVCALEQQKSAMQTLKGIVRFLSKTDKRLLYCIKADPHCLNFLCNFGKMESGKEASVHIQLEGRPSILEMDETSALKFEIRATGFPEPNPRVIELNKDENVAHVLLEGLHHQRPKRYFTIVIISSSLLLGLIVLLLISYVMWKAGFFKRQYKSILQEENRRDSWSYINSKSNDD
T1 sequence (P05556 21-798): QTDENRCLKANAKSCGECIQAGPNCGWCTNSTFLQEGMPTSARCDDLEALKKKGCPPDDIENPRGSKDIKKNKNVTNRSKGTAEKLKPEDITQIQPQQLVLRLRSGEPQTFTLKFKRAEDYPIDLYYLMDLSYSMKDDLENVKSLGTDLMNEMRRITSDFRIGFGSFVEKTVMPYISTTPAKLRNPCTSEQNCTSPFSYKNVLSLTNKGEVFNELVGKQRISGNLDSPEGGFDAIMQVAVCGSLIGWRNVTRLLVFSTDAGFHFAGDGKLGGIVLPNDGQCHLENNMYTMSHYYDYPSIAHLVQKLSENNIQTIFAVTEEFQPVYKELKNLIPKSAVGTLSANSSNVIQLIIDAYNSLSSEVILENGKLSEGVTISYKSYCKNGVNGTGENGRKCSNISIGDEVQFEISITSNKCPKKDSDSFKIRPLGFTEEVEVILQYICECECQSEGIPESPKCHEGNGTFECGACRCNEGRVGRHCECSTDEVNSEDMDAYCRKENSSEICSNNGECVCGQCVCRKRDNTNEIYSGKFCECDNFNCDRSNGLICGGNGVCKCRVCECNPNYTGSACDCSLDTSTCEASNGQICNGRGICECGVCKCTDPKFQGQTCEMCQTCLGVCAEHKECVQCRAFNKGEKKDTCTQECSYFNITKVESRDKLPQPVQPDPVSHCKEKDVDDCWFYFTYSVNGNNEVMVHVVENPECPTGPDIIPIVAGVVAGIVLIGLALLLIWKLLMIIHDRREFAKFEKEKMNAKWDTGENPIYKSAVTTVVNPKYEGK

In the case of `CC(C(=O)N[C@@H](CC(=O)O)C(=O)N[C@H](C(=O)O)c1ccccc1)N1C(=O)N(Cc2ccccc2)C(C)(c2ccc(C(=N)N)cc2)C1=O` (stereo partly drawn) [Example 62, ((R,S)-2-((R,S)-4-(4-(Amino-imino-methyl)phenyl)-3-benzyl-4-methyl-2,5-dioxoimidazolidin-1-yl)-2-methylacetyl)-L-aspartyl-L-phenylglycine], the IC50 is reported as 0.37 µM.
`CC1(c2ccc(C(=N)N)cc2)C(=O)N(CC(=O)NC[C@H](NC(=O)OCc2ccccc2)C(=O)O)C(=O)N1Cc1ccccc1` (stereo partly drawn) [Example 46, (S)-3-(((R,S)-4-(4-(Amino-imino-methyl)phenyl)-3-benzyl-4-methyl-2,5-dioxoimidazolidin-1-yl)acetylamino)-2-benzyloxycarbonylaminopropionic acid] was tested, and the IC50 was 6.8 µM.
Work on `CC1(c2ccc(C(=N)N)cc2)C(=O)N(CC(=O)N[C@@H](CC(=O)O)C(=O)N[C@H](C(=O)O)c2ccccc2)C(=O)N1Cc1cc(C(F)(F)F)cc(C(F)(F)F)c1` (mixture of isomers) [Example 16, ((R,S)-4-(4-(Amino-imino-methyl)phenyl)-3-(3,5-bis(trifluoromethyl)benzyl)4-methyl-2,5-dioxoimidazolidin-1-yl)acetyl-L-aspartyl-L-phenylglycine] yielded an IC50 of 30 µM.
`CC1(c2ccc(C(=N)N)cc2)C(=O)N(CC(=O)N[C@@H](CC(=O)O)C(=O)N[C@H](C(=O)O)c2ccccc2)C(=O)N1Cc1ccccc1-c1ccccc1` (mixture of isomers) [Example 11, ((R,S)-4-(4-(Amino-imino-methyl)phenyl)-3-((2-biphenylyl)methyl)-4-methyl-2,5-dioxoimidazolidin-1-yl)acetyl-L-aspartyl-L-phenylglycine] showed an IC50 of 62 µM.
`CCN1C(=O)N(CC(=O)N[C@@H](CC(=O)O)C(=O)N[C@H](C(=O)O)c2ccccc2)C(=O)[C@@H]1CCCN` [Example 35, ((S)-4-(3-Aminopropyl)-3-ethyl-2,5-dioxoimidazolidin-1-yl)acetyl-L-aspartyl-L-phenylglycine] was tested, and the IC50 was 250 µM.
`CC1(c2ccc(C(=N)N)cc2)C(=O)N(CC(=O)NCCC(=O)O)C(=O)N1Cc1ccccc1` (racemic) [Example 34, 3-(((R,S)-4-(4-(Amino-imino-methyl)phenyl)-3-benzyl-4-methyl-2,5-dioxoimidazolidin-1-yl)acetylamino)propionic acid hydrochloride] showed an IC50 of 175 µM.
`CC1(c2ccc(C(=N)N)cc2)NC(=O)N(CC(=O)N[C@@H](CC(=O)O)C(=O)N[C@H](C(=O)O)c2ccccc2)C1=O` (stereo partly drawn) [Example 1, ((R,S)-4-(4-(Amino-imino-methyl)phenyl)-4-methyl-2,5-dioxoimidazolidin-1-yl)acetyl-L-aspartyl-L-phenylglycine] showed an IC50 of 140 µM.
Work on `CN(C(=O)CN1C(=O)N(Cc2ccccc2)C(C)(c2ccc(C(=N)N)cc2)C1=O)[C@@H](CC(=O)O)C(=O)N[C@H](C(=O)O)c1ccccc1` (mixture of isomers) [Example 19, ((R,S)-4-(4-(Amino-imino-methyl)phenyl)-3-benzyl-4-methyl-2,5-dioxo-imidazolidin-1-yl)acetyl-L-N-methyl-aspartyl-L-phenylglycine] yielded an IC50 of 0.2 µM.
Work on `CCN1C(=O)N(CC(=O)N[C@@H](CC(=O)O)C(=O)N[C@@H](C(=O)O)c2ccccc2)C(=O)[C@@H]1CCCNC(=N)N` [Example 36, ((S)-4-(3-Guanidinopropyl)-3-ethyl-2,5-dioxoimidazolidin-1-yl)acetyl-L-aspartyl-D-phenylglycine] yielded an IC50 of 250 µM.
`CC1(c2ccc(C(=N)N)cc2)C(=O)N(CC(=O)N[C@@H](CC(=O)O)C(=O)N[C@H](C(=O)O)c2ccccc2)C(=O)N1Cc1ccccc1CS(=O)(=O)c1ccccc1` (mixture of isomers) [Example 10] was tested, and the IC50 was 47 µM.
`Cc1c(C)c(C)c(CN2C(=O)N(CC(=O)N[C@@H](CC(=O)O)C(=O)N[C@H](C(=O)O)c3ccccc3)C(=O)C2(C)c2ccc(C(=N)N)cc2)c(C)c1C` (mixture of isomers) [Example 17, ((R,S)-4-(4-(Amino-imino-methyl)phenyl)-3-(pentamethylbenzyl)-4-methyl-2,5-dioxoimidazolidin-1-yl)acetyl-L-aspartyl-L-phenylglycine] was tested, and the IC50 was 79 µM.
With `Cc1ccc(CN2C(=O)N(CC(=O)N[C@@H](CC(=O)O)C(=O)N[C@H](C(=O)O)c3ccccc3)C(=O)C2(C)c2ccc(C(=N)N)cc2)cc1` (mixture of isomers) [Example 12, ((R,S)-4-(4-(Amino-imino-methyl)phenyl)-3-(4-methylbenzyl)-4-methyl-2,5-dioxoimidazolidin-1-yl)acetyl-L-aspartyl-L-phenylglycine] the IC50 was 2.7 µM.
`NCCC[C@H]1C(=O)N(CC(=O)N[C@@H](CC(=O)O)C(=O)N[C@H](C(=O)O)c2ccccc2)C(=O)N1Cc1ccccc1` [Example 37, ((S)-4-(3-Aminopropyl)-3-benzyl-2,5-dioxoimidazolidin-1-yl)acetyl-L-aspartyl-L-phenylglycine] showed an IC50 of 200 µM.
`CC(C)(C)c1ccc(CN2C(=O)N(CC(=O)N[C@@H](CC(=O)O)C(=O)N[C@H](C(=O)O)c3ccccc3)C(=O)C2(C)c2ccc(C(=N)N)cc2)cc1` (mixture of isomers) [Example 5, ((R,S)-4-(4-(Amino-imino-methyl)phenyl)-3-(4-tert-butyl-benzyl)-4-methyl-2,5-dioxoimidazolidin-1-yl)acetyl-L-aspartyl-L-phenylglycine] showed an IC50 of 15 µM.
`COc1cc(OC)cc(C(CC(=O)O)NC(=O)CN2C(=O)N(Cc3ccccc3)C(C)(c3ccc(C(=N)N)cc3)C2=O)c1` [Example 59, (R,S)-3-(((R,S)-4-(4-(Amino-imino-methyl)phenyl)-3-benzyl-4-methyl-2,5-dioxoimidazolidin-1-yl)acetylamino)-3-(3,5-dimethoxyphenyl)propionic acid] gave an IC50 of 27.5 µM.
`N=C(N)NCCC[C@H]1C(=O)N(CC(=O)N[C@@H](CC(=O)O)C(=O)N[C@H](C(=O)O)c2ccccc2)C(=O)N1Cc1ccccc1` [Example 38, ((S)-4-(3-Guanidinopropyl)-3-benzyl-2,5-dioxoimidazolidin-1-yl)acetyl-L-aspartyl-L-phenylglycine] gave an IC50 of 45 µM.
Work on `N=C(N)c1ccc(C2(Cc3ccccc3)C(=O)N(CC(=O)N[C@@H](CC(=O)O)C(=O)N[C@H](C(=O)O)c3ccccc3)C(=O)N2Cc2ccccc2)cc1` (stereo partly drawn) [Example 20, ((R,S)-4-(4-(Amino-imino-methyl)phenyl)-3,4-dibenzyl-2,5-dioxo-imidazolidin-1-yl)acetyl-L-aspartyl-L-phenylglycine] yielded an IC50 of 2 µM.
In the case of `COC(=O)[C@@H](NC(=O)[C@H](CC(=O)O)NC(=O)CN1C(=O)N(Cc2ccccc2)C(C)(c2ccc(C(=N)N)cc2)C1=O)c1ccccc1` (mixture of isomers) [Example 25, ((R,S)-4-(4-(Amino-imino-methyl)phenyl)-3-benzyl-4-methyl-2,5-dioxo-imidazolidin-1-yl)acetyl-L-aspartyl-L-phenylglycine methyl ester], the IC50 is reported as 22 µM.
